Columns and labels:
Experiment in all cases: biochemical
[1] = target: T1, Adenosine receptor A2a (Homo sapiens, UniProt P29274)
[2] = target: T2, Adenosine receptor A1 (Homo sapiens, UniProt P30542)
T2 sequence (P30542 whole entry): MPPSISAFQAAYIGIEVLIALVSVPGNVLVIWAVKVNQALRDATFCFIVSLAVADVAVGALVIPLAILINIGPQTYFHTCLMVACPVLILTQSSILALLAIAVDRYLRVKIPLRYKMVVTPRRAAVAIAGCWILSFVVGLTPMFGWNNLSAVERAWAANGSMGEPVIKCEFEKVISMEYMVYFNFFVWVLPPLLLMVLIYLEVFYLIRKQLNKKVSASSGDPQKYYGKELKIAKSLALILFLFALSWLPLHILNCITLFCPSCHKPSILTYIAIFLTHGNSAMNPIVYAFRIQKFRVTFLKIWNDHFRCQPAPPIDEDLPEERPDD

[3] = target: T3, Adenosine receptor A2b (Homo sapiens, UniProt P29275)
T3 sequence (P29275 whole entry): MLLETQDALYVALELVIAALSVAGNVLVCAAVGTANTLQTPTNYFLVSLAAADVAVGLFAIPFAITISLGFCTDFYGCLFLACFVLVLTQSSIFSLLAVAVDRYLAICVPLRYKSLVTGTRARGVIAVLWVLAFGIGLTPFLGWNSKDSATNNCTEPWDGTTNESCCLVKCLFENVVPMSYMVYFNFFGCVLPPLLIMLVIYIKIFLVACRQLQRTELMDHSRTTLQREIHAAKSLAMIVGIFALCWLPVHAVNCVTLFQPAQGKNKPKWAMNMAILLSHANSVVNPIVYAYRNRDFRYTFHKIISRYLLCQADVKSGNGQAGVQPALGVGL
Description: Inhibition of [3H]DPCPX binding to human Adenosine A2B receptor expressed in HEK cells; range 640-1100

[4] = target: T1, Adenosine receptor A2a; remark: listed apart in the source
Description: Inhibition of [3H]CGS-21680 binding to human Adenosine A2a receptor expressed in HEK293 cells; Range 438-749

[5] = target: T2, Adenosine receptor A1; remark: listed apart in the source
[6] = target: T3, Adenosine receptor A2b; remark: listed apart in the source
Description: Inhibition of [3H]DPCPX binding to human Adenosine A2B receptor expressed in HEK cells; Range 3580-12400

[7] = target: T3, Adenosine receptor A2b; remark: listed apart in the source
[8] = target: T1, Adenosine receptor A2a; remark: listed apart in the source
[9] = target: T2, Adenosine receptor A1; remark: listed apart in the source
Description: Inhibition of [3H]DPCPX binding to human Adenosine A1 receptor expressed in CHO cells; Range 256-620

[10] = target: T2, Adenosine receptor A1; format: cell-based, CHO
Description: Inhibition of [3H]DPCPX binding to human Adenosine A1 receptor expressed in CHO cells

[11] = target: T1, Adenosine receptor A2a; remark: listed apart in the source
Description: Inhibition of [3H]CGS-21680 binding to human Adenosine A2A receptor expressed in HEK293 cells

T1 sequence (P29274 whole entry): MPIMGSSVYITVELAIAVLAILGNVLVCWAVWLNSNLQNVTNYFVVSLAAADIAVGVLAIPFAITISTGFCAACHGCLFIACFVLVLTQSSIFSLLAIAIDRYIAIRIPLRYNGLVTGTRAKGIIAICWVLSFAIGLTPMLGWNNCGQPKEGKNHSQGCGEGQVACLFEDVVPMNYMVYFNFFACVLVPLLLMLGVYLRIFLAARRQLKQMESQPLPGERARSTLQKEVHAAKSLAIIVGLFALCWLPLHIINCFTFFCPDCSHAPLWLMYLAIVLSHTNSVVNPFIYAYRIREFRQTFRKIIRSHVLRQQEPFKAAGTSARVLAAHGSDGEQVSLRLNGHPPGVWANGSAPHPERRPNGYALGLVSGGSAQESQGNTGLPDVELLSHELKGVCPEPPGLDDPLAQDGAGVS

| IC50 [1] [nM] | SMILES | other results |
| --- | --- | --- |
| 200 | CCCCCc1nc2nc[nH]c2c2nc(-c3ccccc3)nn12 |  |
| 56 | CCCCc1nc2nc[nH]c2c2nc(-c3cccc(Cl)c3)nn12 |  |
| 188 | CCCCc1nc2[nH]cnc2c2nc(-c3cccc(C)c3)nn12 |  |
| 3800 | CCCCc1nc2nc[nH]c2c2nc(-c3ccc(OCC)cc3)nn12 | Ki [2]: 413 nM; Ki [3]: 838 nM; Ki [4]: 572 nM |
| 47 | CCCCc1nc2[nH]cnc2c2nc(Cc3ccccc3)nn12 |  |
| 3300 | CCCCc1nc2nc[nH]c2c2nc(-c3ccc(Br)cc3)nn12 |  |
| 67 | CCCCc1nc2[nH]cnc2c2nc(-c3cccc(OC)c3)nn12 |  |
| 900 | CCCCc1nc2[nH]cnc2c2nc(-c3cccnc3)nn12 |  |
| 7800 | CCCCCCc1nc2nc[nH]c2c2nc(-c3ccccc3)nn12 |  |
| 46 | CCCCc1nc2[nH]cnc2c2nc(C)nn12 |  |
| 58 | CCCCc1nc2nc[nH]c2c2nc(-c3ccc(O)cc3)nn12 |  |
|  | CCCCc1nc2[nH]cnc2c2nc(-c3ccc(N(C)C)cc3)nn12 | Ki [5]: 1310 nM; Ki [6]: 6660 nM |
| 120 | CCCc1nc2nc[nH]c2c2nc(-c3ccccc3)nn12 |  |
| 210 | CCCCc1nc2[nH]cnc2c2nc(-c3ccco3)nn12 |  |
| 360 | CCc1nc2[nH]cnc2c2nc(-c3ccccc3)nn12 |  |
| 1600 | CCCCc1nc2[nH]cnc2c2nc(-c3ccc(OC)cc3)nn12 | Ki [7]: 1030 nM; Ki [8]: 892 nM; Ki [9]: 398 nM |
| 180 | CCCCc1nc2[nH]cnc2c2nc(-c3ccc(C)cc3)nn12 |  |
| 510 | CCCCc1nc2nc[nH]c2c2nc(-c3ccc(F)cc3)nn12 |  |
| 2500 | CCCCc1nc2[nH]cnc2c2nc(-c3cc(OC)c(OC)c(OC)c3)nn12 |  |
|  | COc1ccc(-c2csc3nc(=O)cc(N)n23)cc1 | Ki [10]: > 10000 nM; Ki [11]: > 10000 nM |

| SMILES | IC50 [1] [nM] | other results |
| --- | --- | --- |
| Cc1nc2[nH]cnc2c2nc(-c3ccccc3)nn12 | 550 |  |

Reference: ChEMBL document CHEMBL1135548 (J Med Chem, 2002)
